Measured values: the Kinase Knowledgebase extract (Sharma et al. 2016)

Molecular target: CDK2 (human) (UniProt P24941)
Assay: Cell-Based Assay

Row | IC50 (mda-mb-435) [nM] | IC50 (rko) [nM] | SMILES
1 | > 30000 | – | COc1cc[nH]c1/C=C1\C(=O)Nc2ccc(F)cc21
2 | < 10 | < 10 | COc1cc[nH]c1/C=C1\C(=O)Nc2ccc([N+](=O)[O-])c(N3CC[C@@H](N)C3)c21
3 | > 30000 | – | COc1cc[nH]c1/C=C1\C(=O)Nc2ccc([N+](=O)[O-])c(-n3ccnc3)c21
4 | < 10 | < 10 | COc1cc[nH]c1/C=C1\C(=O)Nc2ccc([N+](=O)[O-])c(N3CCC(N)CC3)c21
5 | 1000 | 339 | COc1cc[nH]c1/C=C1\C(=O)Nc2ccc([N+](=O)[O-])c(NC3CCC(O)C3)c21 (stereo unspecified)
6 | 61 | < 15 | COc1cc[nH]c1/C=C1\C(=O)Nc2ccc([N+](=O)[O-])c(NC3CCC(N)C3)c21 (stereo unspecified)
7 | – | < 10 | COc1cc[nH]c1/C=C1\C(=O)Nc2ccc([N+](=O)[O-])c(N3CCC(O)CC3)c21
